Experimental data from ChEMBL document CHEMBL2176906, “Diterpenoids isolated from Sideritis species protect astrocytes against oxidative stress via Nrf2” (J Nat Prod, 2012).
Activity calls are given as the source filed them. No cut-off for these calls is given here.

Tested on: U373 MG
Experiment: Inhibition of AAPH-induced oxidative stress in human U373MG cells assessed as peroxy radical scavenging activity at 8 uM by ORAC assay
Assay type: functional, cell-based
Conditions: U-373MG ATCC

Cc1c(C)c2c(c(C)c1O)CCC(C)(C(=O)O)O2 (stereo unspecified)
Activity: Active
